Paper PMC5038265 (Antimicrobial Agents and Chemotherapy, 2016)
≈ marks a conversion by molar mass, not a printed value. Where two headings read alike, the source gives them in different places.

Key:
[1] = system: COX1 in HepG2 cells; test: Mitochondrial protein synthesis assay, COX1 level; format: cell-based; settings: Homo sapiens, 168 h; HepG2, 7 days; read-out: Mean EC50 ± SD COX1
Method: (§1) The human liver carcinoma-derived HepG2 cell line was obtained from the ATCC (ATCC HB-8065). HepG2 cells were grown in Dulbecco's modified Eagle's medium containing 10% fetal calf serum, 1 mM sodium pyruvate, 0.1 mM essential amino acids, and 50 U/ml penicillin-streptomycin at 37°C with 5% CO2. HepG2 cells were seeded into 96-well plates at 3,000 cells/200 μl/well in cell culture medium. Cells were then grown in the presence of the compounds at 37°C in 10% CO2 for 7 days in at least duplicate concentrations, with the medium and compounds being replaced on the fourth day. After 7 days, the levels of SDHA (subunit A of the succinate dehydrogenase complex) and COX1 (cytochrome c oxidase) were determined by using the MitoSciences In-Cell enzyme-linked immunosorbent assay (ELISA) kit. Janus green staining was used to determined cell viability after 7 days (In-Cell ELISA kit, catalog number MS643).

[2] = system: M. tuberculosis H37Rv; test: MIC for M. tuberculosis H37Rv (resazurin/alamarBlue); format: cell-based, Mycobacterium tuberculosis; settings: for MIC: Mycobacterium tuberculosis, H37RV, read-out: MIC M.tb H37Rv; for improvement of MIC values over compound 1: M. tuberculosis H37Rv
[3] = target: M. tuberculosis LeuRS (Mycobacterium tuberculosis, UniProt P9WFV1); test: biochemical; set-up: species or system M. tuberculosis H37Rv
Chain of M. tuberculosis LeuRS (P9WFV1 whole entry): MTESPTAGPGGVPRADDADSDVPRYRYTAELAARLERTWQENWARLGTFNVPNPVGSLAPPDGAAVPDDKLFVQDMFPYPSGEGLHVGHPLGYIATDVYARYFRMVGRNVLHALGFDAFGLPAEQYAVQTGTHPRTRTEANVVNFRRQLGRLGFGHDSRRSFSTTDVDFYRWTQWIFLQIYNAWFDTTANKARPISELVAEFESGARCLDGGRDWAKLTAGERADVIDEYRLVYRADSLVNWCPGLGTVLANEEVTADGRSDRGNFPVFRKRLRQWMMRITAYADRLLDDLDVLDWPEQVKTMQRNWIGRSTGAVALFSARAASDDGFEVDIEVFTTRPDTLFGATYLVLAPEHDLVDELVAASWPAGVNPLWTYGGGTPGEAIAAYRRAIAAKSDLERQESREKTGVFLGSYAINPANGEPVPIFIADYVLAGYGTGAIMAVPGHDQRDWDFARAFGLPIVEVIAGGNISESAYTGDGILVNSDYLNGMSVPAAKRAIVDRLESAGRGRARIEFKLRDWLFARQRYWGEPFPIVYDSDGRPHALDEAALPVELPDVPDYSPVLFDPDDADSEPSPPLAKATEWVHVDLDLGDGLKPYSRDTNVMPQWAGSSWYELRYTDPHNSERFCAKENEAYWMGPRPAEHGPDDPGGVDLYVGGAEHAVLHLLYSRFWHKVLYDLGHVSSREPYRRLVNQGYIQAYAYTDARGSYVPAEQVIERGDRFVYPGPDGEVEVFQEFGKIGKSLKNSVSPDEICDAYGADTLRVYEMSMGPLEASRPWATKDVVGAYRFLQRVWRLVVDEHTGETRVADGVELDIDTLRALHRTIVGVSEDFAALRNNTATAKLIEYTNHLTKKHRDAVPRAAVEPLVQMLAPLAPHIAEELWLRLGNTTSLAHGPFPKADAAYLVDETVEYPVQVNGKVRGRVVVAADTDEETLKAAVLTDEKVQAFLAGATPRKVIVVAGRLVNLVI

[4] = system: SDHA in HepG2 cells; test: Mitochondrial protein synthesis assay, SDHA level; format: cell-based; settings: Homo sapiens, 168 h; HepG2, 7 days; read-out: Mean EC50 ± SD SDHA
Method: as §1

[5] = in vitro; format: in vitro ADME; settings: mouse plasma, 1 and 10 µg/ml, ultrafiltration; read-out: Mouse PPB (converted)
Method: Compounds were added to 1.5-ml aliquots of mouse plasma at concentrations of 1 and 10 µg/ml and then incubated in a shaking water bath at 37°C for 15 min. Both samples were treated similarly, and a 0.5-ml aliquot was removed from each tube and added to the filter reservoir of Microcon centrifugal filter devices (Ultracel YM-30 with a molecular mass cutoff of 30 kDa). The devices were centrifuged at 1,000 × g for 10 min, and 100 μl of the filtrate was transferred to a 96-well plate and diluted 5-fold. Ten-microliter volumes of the samples were injected and analyzed with the LC-MS/MS system. All samples were analyzed in duplicate. Quantitation was based on the peak area ratio of the analyte over the internal standard, and all integrations were performed with peak areas by using Analyst version 1.4.1 (Applied Biosystems, Foster City, CA, USA). Plasma protein binding was calculated based on the following equation: Plasma Protein Binding (%)=(PeakAreaPlasma UltrafilrateSpiked−PeakAreaPlasmaFiltrate)/PeakAreaPlasma UltrafiltrateSpiked×100

[6] = in vivo; settings: for α-t1/2 % AUC / β-t1/2 % AUC: i.v.; for AUC(0-inf) / Cmax / MRT / Vd / clearance / half-life / AUC(0-t) / Tmax / bioavailability: in vivo
Method: Mouse pharmacokinetic studies were conducted by using female CD-1 mice for compounds 1, 11, and 12, while BALB/c mice were used for compound 13. Mouse body weights were 19 to 28 g, and on the morning of dosing, mice were split randomly into 3 dosing groups to receive the test article by either intravenous (i.v.) tail vein injection or oral (p.o.) gavage. After dosing, blood samples were collected via cardiac puncture at specific time points (n = 3 mice/time point) through 24 h (K2EDTA as an anticoagulant) and processed for plasma. Antibiotic concentrations in the plasma samples were analyzed by liquid chromatography-tandem mass spectrometry (LC-MS/MS). The LC-MS/MS analysis was conducted by using analyte/internal standard peak area methods. The internal standard was AN3365 ([21]), and the instrument used was an API4000 QTRAP instrument (AB Sciex). The limit of quantitation (LOQ) was 1 or 2 ng/ml. Pharmacokinetic analyses of the mean plasma concentration-time profiles were performed by using WinNonlin Pro version 5.2. A compartmental model was used for the data for i.v. dosing, and a noncompartmental model was used for the data for p.o. dosing. […] Compounds 1 and 13 were formulated in saline (0.9% [wt/vol] NaCl) at 7.5 mg/ml, and the pH was adjusted to >5 by the addition of NaOH. Compound 11 was formulated to 6.5 mg/ml in water-dimethylacetamide-ethanol (EtOH) (76:19:5), and the pH was adjusted to >5 by the addition of NaOH. Compound 12 was formulated to 7.5 mg/ml in PEG 300-propylene glycol (PG)-water (55:25:20), and the pH was adjusted to >5 by the addition of NaOH.

[7] = system: HepG2 cells; test: HepG2 cell viability (Janus green staining); format: cell-based; settings: Homo sapiens, 168 h, HepG2, 7 days, read-out: Mean EC50 ± SD Cell viability
Method: as §1

[8] = system: Vero cells; test: In vitro cytotoxicity assay (MTT); format: cell-based, African green monkey; settings: Chlorocebus sabaeus, 72 h
Method: Vero epithelial cells (from African green monkey; ATCC CCL-81) were cultured in Dulbecco's modified Eagle's medium (DMEM) supplemented with 10% fetal bovine serum (FBS) and maintained in a humidified incubator (37°C in 5% CO2). Cells were dislodged with a cell scraper, collected by centrifugation, resuspended in fresh medium at ∼10^6 cells/ml, dispensed into 96-well microtiter plates ([…]), and incubated for 18 h at 37°C. Twofold serial dilutions of test compounds in DMEM with FBS were subsequently added, and cells were incubated for another 72 h. In triplicate studies, the cytopathic effects of compounds were evaluated colorimetrically by using the 3-(4,5-dimethyl-2-thiazolyl)-2,5-diphenyl-2H-tetrazolium bromide (MTT) cell proliferation assay (ATCC). IC50 data were obtained from dose-response curves plotted by using GraphPad Prism 5.

[9] = target: M. tuberculosis LeuRS editing domain (Mycobacterium tuberculosis, UniProt P9WFV1); test: biochemical; format: binding
Chain of M. tuberculosis LeuRS editing domain (P9WFV1 309-513): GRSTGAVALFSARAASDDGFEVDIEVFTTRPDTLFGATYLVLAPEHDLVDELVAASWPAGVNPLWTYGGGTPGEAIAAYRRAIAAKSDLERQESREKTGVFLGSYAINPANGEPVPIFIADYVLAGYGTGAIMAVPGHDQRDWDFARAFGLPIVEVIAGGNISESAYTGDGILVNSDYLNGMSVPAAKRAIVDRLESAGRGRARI

[10] = mouse, iv, 30 mg/kg, α-t1/2, mouse
[11] = mouse, iv, 30 mg/kg, β-t1/2, mouse
[12] = mouse, po, 30 mg/kg, Terminal t1/2, mouse
[13] = female, CD-1, mouse, iv, 15 mg/kg

Row | Compound | EC50 [1] [µM] | MIC [2] [µg/mL] | IC50 ([3]; read-out: IC50 M.tb LeuRS) [µM] | EC50 [4] [µM] | fraction unbound [5] | AUC(0-t) ([6]; mouse, po, 30 mg/kg) [ng·h/mL] | Cmax ([6]; mouse, po, 30 mg/kg) [ng/mL] | Tmax ([6]; mouse, po, 30 mg/kg) [h] | bioavailability ([6]; mouse, po, 30 mg/kg) [%] | half-life [6, 12] [h] | EC50 [7] [µM] | EC50 [8] [µM] | MIC M.tb H37Rv [2] [µg/mL] | other results
1 | CCOc1ccc(F)c2c1B(O)O[C@@H]2CN [Compound 12] | > 150 | 0.05 (≈ 0.222 µM) | 0.08 | 39.5 ± 9.2 | 0.84 | 23800 | 5000 | 1 | 89 | 2.7 | 23 ± 1.4 |  |  | α-t1/2 % AUC ([6]; mouse, 30 mg/kg): 7 % AUC; β-t1/2 % AUC ([6]; mouse, 30 mg/kg): 93 % AUC; AUC(0-inf) ([6]; mouse, iv, 30 mg/kg): 26800 ng·h/mL; Cmax ([6]; mouse, iv, 30 mg/kg): 13700 ng/mL; MRT ([6]; mouse, iv, 30 mg/kg): 3.4 h; Vd ([6]; mouse, iv, 30 mg/kg): 3.81 L/kg; clearance ([6]; mouse, iv, 30 mg/kg): 18.6 mL/min/kg; half-life [6, 10]: 0.11 h; half-life [6, 11]: 2.53 h
2 | C[C@H]1c2cccc(O)c2C(=O)C2=C(O)[C@]3(O)C(=O)C(C(N)=O)=C(O)[C@@H](N(C)C)[C@@H]3[C@@H](O)[C@@H]21 [Doxycycline, doxycycline] | 23.7 ± 6.4 |  |  | 109 ± 29 |  |  |  |  |  |  | 118 ± 35.5 |  |  | 
3 | CCOc1ccc(F)c2c1B(O)OC2CN (stereo not drawn) [Compound 6] |  | 0.05 (≈ 0.222 µM) | 0.11 |  |  |  |  |  |  |  |  | > 50 |  | improvement of MIC values over compound 1 [2]: more than 5 fold
4 | CCOc1ccc(Cl)c2c1B(O)O[C@@H]2CN [Compound 13] | > 150 | 0.02 (≈ 0.0828 µM) |  | 20.5 ± 2.1 | 0.77 | 47500 | 6400 | 0.25 | 92 | 3.1 | 80 ± 5.7 |  |  | IC50 [3]: 0.06 µM; Kd [9]: 0.075 µM; No. of sites [9]: 1.19; ΔGap [9]: -9.7 kcal/mol; ΔHap [9]: -4.2 kcal/mol; −TΔSap [9]: -5.5 kcal/mol; α-t1/2 % AUC ([6]; mouse, 30 mg/kg): 2 % AUC; β-t1/2 % AUC ([6]; mouse, 30 mg/kg): 98 % AUC; AUC(0-inf) ([6]; mouse, iv, 30 mg/kg): 51600 ng·h/mL; Cmax ([6]; mouse, iv, 30 mg/kg): 13600 ng/mL; MRT ([6]; mouse, iv, 30 mg/kg): 5.4 h; Vd ([6]; mouse, iv, 30 mg/kg): 3.14 L/kg; clearance ([6]; mouse, iv, 30 mg/kg): 9.7 mL/min/kg; half-life [6, 10]: 0.1 h; half-life [6, 11]: 3.83 h
5 | CCOc1ccc(C)c2c1B(O)OC2CN (stereo not drawn) [Compound 8] |  | 0.04 (≈ 0.181 µM) | 0.2 |  |  |  |  |  |  |  |  | > 50 |  | 
6 | CC[C@H]1OC(=O)[C@H](C)[C@@H](O[C@H]2C[C@@](C)(OC)[C@@H](O)[C@H](C)O2)[C@H](C)[C@@H](O[C@@H]2O[C@H](C)C[C@H](N(C)C)[C@H]2O)[C@](C)(O)C[C@@H](C)C(=O)[C@H](C)[C@@H](O)[C@]1(C)O [Erythromycin, erythromycin] | > 150 |  |  | > 150 |  |  |  |  |  |  | > 150 |  |  | 
7 | OCCCOc1cccc2c1B(O)OC2 [AN3016] |  | 1 (≈ 4.81 µM) | 3.5 |  |  |  |  |  |  |  |  |  | 1.0 (≈ 4.81 µM) | 
8 | CCOc1cc(Cl)cc2c1B(O)OC2CN (stereo not drawn) [Compound 5] |  | 1.2 (≈ 4.97 µM) | 0.38 |  |  |  |  |  |  |  |  | 43 | ≥ 1.1 | 
9 | CCOc1ccc(Br)c2c1B(O)OC2CN (stereo not drawn) [Compound 11] |  | 0.05 (≈ 0.175 µM) |  |  | 0.5 | 35900 | 7200 | 1 | 39 | 2.7 |  | > 50 |  | improvement of MIC values over compound 1 [2]: more than 5 fold; IC50 [3]: 0.11 µM; Kd [9]: 0.04 µM; No. of sites [9]: 1.02; ΔGap [9]: -10.0 kcal/mol; ΔHap [9]: -5.5 kcal/mol; −TΔSap [9]: -4.6 kcal/mol; AUC(0-inf) [6, 13]: 45800 ng·h/mL; Cmax [6, 13]: 18000 ng/mL; MRT [6, 13]: 3 h; Vd [6, 13]: 0.968 L/kg; clearance [6, 13]: 5.47 mL/min/kg; half-life ([6]; female, CD-1, mouse, iv, 15 mg/kg, α-t1/2, mouse): 0.09 h; half-life ([6]; female, CD-1, mouse, iv, 15 mg/kg, β-t1/2, mouse): 2.08 h; α-t1/2 % AUC ([6]; mouse, 15 mg/kg): 2 % AUC; β-t1/2 % AUC ([6]; mouse, 15 mg/kg): 98 % AUC
10 | CCOc1c(F)ccc2c1B(O)OC2CN (stereo not drawn) [Compound 7] |  | > 1.1 | 0.56 |  |  |  |  |  |  |  |  | > 50 | ≥ 1.1 | 
